The text below walks through data of patent US6818445B2 (Synaptic Pharmaceutical Corporation, priority 1994, dated 2004).

Structures are written as SMILES.

The target in one assay is T1, human α2B receptor (Homo sapiens, UniProt P18089).
T1 sequence (P18089 1-450): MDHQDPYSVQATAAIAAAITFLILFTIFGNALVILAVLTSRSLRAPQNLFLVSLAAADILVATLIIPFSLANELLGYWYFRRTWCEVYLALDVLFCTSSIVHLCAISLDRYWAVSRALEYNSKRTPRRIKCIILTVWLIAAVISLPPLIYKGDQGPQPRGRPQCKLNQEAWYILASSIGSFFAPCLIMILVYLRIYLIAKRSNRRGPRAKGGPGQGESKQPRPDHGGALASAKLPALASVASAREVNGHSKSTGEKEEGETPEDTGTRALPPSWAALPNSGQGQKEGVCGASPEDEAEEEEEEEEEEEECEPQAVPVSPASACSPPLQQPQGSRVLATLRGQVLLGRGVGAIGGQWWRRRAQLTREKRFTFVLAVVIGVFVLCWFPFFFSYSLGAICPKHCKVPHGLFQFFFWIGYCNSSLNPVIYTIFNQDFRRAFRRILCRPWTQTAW
Nature of the assay: Binding to cloned human α2B adrenergic receptor, [3H]rauwolscine.

For another assay, the target named is T2, human Y2 receptor (Homo sapiens, UniProt P49146).
T2 sequence (P49146 1-381): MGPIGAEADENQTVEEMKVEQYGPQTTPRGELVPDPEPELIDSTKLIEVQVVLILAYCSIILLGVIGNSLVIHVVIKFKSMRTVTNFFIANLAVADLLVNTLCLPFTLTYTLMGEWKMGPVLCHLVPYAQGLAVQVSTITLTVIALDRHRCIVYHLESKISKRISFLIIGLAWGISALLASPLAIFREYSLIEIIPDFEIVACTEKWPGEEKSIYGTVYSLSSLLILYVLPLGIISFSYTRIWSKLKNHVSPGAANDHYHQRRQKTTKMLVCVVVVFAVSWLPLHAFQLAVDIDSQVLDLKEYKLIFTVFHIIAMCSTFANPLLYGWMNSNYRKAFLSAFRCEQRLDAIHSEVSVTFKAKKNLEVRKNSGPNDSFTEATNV
The format is binding. The following applies: read-out: Binding Affinity (Ki (nM) vs. ^125I-PYY) Human Receptor Y2; Table 14.

Another assay addresses T3, human α1b receptor (Homo sapiens, UniProt P35368).
T3 sequence (P35368 1-520): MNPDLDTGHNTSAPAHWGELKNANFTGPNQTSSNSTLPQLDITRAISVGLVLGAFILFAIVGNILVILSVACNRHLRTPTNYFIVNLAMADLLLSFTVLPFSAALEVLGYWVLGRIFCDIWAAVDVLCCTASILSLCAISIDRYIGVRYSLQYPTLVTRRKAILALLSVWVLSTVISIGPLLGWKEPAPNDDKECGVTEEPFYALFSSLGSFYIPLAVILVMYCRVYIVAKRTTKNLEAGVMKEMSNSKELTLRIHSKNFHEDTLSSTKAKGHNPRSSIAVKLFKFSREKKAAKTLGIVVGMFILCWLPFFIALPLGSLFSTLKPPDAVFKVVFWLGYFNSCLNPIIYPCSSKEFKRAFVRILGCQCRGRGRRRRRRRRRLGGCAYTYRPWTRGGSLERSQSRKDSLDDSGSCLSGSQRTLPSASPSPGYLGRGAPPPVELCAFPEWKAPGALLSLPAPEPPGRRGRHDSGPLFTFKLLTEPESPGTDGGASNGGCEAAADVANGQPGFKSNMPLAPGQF
Nature of the assay: Binding to cloned human α1b adrenergic receptor.

For a further assay, the target named is T4, human Y1 receptor (Homo sapiens, UniProt P25929).
T4 sequence (P25929 1-384): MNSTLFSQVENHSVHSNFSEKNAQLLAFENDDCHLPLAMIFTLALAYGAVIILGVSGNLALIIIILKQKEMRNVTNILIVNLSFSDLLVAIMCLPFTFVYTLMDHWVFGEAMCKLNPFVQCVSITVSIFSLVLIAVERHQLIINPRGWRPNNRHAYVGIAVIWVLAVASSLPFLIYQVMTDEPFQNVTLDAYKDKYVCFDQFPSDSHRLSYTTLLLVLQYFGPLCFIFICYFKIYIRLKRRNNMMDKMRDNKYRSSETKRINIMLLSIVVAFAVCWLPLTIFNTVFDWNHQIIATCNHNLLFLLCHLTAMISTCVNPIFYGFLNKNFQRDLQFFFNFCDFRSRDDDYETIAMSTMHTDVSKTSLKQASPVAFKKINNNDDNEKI
The following applies: read-out: Binding Affinity (Ki (nM) vs. ^125I-PYY) Human Receptor Y1; Table 14.

The target in another assay is human 5-HT7 receptor (Homo sapiens, UniProt P34969). Nature of the assay: Binding to human 5-HT7 receptor. The settings on record: cloned human receptor.
The next assay concerns the target T5, human α1a receptor (Homo sapiens, UniProt P35348).
T5 sequence (P35348 1-466): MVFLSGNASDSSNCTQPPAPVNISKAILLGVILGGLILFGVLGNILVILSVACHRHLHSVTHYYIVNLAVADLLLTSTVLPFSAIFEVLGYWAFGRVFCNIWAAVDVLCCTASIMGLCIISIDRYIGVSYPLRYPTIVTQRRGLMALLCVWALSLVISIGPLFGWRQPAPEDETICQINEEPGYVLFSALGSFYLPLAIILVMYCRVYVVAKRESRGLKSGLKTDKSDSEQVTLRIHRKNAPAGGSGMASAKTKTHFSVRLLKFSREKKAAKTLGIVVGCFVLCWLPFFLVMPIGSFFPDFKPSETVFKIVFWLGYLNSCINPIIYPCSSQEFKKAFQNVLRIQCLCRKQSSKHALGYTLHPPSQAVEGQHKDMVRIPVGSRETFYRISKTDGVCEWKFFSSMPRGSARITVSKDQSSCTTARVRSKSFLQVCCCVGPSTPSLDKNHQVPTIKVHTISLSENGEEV
Nature of the assay: Binding to cloned human α1a adrenergic receptor.

The next assay deals with human Y4 receptor (Homo sapiens, UniProt P50391). The format is binding. The settings on record: read-out: Binding Affinity (Ki (nM) vs. ^125I-PYY) Human Receptor Y4; Table 14.
human Y4 receptor, sequence (P50391 whole entry): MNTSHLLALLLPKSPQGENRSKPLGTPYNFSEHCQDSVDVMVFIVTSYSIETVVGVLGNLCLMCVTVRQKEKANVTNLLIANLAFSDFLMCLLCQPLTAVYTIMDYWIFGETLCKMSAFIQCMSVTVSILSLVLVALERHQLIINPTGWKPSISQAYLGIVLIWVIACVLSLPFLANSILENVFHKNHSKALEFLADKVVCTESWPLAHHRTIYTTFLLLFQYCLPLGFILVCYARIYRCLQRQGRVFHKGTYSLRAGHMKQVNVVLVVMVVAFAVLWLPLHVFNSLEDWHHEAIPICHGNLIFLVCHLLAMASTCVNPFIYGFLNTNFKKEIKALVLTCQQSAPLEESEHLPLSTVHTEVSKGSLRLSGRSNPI

human 5-HT7 receptor, sequence (P34969 1-445 isoform P34969-2): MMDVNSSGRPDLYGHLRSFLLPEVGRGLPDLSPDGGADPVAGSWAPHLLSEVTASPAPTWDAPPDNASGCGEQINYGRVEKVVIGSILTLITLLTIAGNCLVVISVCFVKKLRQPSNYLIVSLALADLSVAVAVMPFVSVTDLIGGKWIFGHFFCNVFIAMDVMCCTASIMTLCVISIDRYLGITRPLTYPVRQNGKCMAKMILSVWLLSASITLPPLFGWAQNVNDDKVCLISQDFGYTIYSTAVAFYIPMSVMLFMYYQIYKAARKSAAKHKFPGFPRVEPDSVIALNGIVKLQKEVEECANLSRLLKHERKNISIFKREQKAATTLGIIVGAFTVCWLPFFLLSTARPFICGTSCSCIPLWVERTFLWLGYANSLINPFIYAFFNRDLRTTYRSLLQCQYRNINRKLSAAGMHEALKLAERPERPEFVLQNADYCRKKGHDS

For orientation: Ki means a measure of affinity in units of concentration, obtained from inhibition or displacement. Turning to `Cl.Cl.Nc1ccccc1S(=O)(=O)NCC1CCC(CNCC2CCc3ccccc3C2)CC1` (stereo not drawn) [Compound 22], the “Receptor (pKi) α2b” value on human α2B receptor was 6.43. In addition, the Ki on human Y2 receptor amounted to 7570 nM; on human Y1 receptor it was 17200 nM; on human Y4 receptor, 27500 nM. The “Receptor (pKi) α1b” value on human α1b receptor worked out at 6.98. On human 5-HT7 receptor, the “Receptor (pKi) 5HT7” value is recorded as 6.39. Further, at human α1a receptor, the “Receptor (pKi) α1a” value was 7.34.
For `Cl.O=[N+]([O-])c1ccccc1S(=O)(=O)NC[C@H]1CC[C@H](CNCC2CCc3ccccc3C2)CC1` (stereo partly drawn) [Compound 20], the “Receptor (pKi) α2b” value on human α2B receptor is given as 6.96. Moreover, the Ki came out at 7760 nM on human Y2 receptor, 16000 nM at human Y1 receptor and 20400 nM at human Y4 receptor. The “Receptor (pKi) α1b” value at human α1b receptor was found to be 7.22. Moreover, on human 5-HT7 receptor, the “Receptor (pKi) 5HT7” value was determined as 6.37. In addition, at human α1a receptor, the “Receptor (pKi) α1a” value was 7.72.
On to `Cl.O=S(=O)(NC[C@H]1CC[C@H](CNCC2CCc3ccccc3C2)CC1)c1cccc2ccccc12` (stereo partly drawn) [Compound 19], for which the “Receptor (pKi) α2b” value on human α2B receptor was 6.58. Further, the Ki on human Y2 receptor was determined as 955 nM; at human Y1 receptor, 3550 nM; at human Y4 receptor, 11700 nM. Moreover, the “Receptor (pKi) α1b” value on human α1b receptor was determined as 7.35. Besides, the “Receptor (pKi) 5HT7” value on human 5-HT7 receptor was 6.42. The “Receptor (pKi) α1a” value at human α1a receptor was determined as 7.47.
